Calls of active or inactive are those of the source. No rule for the calls is given here.
Test system: rodent carcinogenicity bioassays, tumor incidence
Assay: CCRIS carcinogenicity studies
Summary of the method: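 NCI-built, expert-reviewed records of carcinogenicity and related test outcomes (mutagenicity, tumor promotion/inhibition) compiled from published and report sources, historical span 1985-2011, not updated.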

Cc1c2ccccc2c(C)c2c1ccc1ccccc12
carcinogen call (Species: FISH, Strain/Sex: KING COBRA GUPPY/ MALE, FEMALE, Route: IMMERSION, Dose: 0, 0.86, 3.18, 0.90 PPB (LOW DOSE) GIVEN AS SEPARATE DOSES OVER A 4 WK PERIOD, EACH DOSE GIVEN 6 HR/D FOR 1 DAY, 0, 16.3, Dose: 0, 0.86, 3.18, 0.90 PPB (LOW DOSE) GIVEN AS SEPARATE DOSES OVER A 4 WK PERIOD, EACH DOSE GIVEN 6 HR/D FOR 1 DAY, 0, 16.3, Tumor Site: Type of Lesion: LIVER: HEPATOCELLULAR ADENOMA, HEPATOCELLULAR CARCINOMA): active; positive | carcinogen call (Species: FISH, Strain/Sex: SHEEPSHEAD MINNOW/MALE, FEMALE, Route: IMMERSION, Dose: 0, 1, 30, 1200 PPB APPROXIMATE CONCENTRATIONS ADMINISTERED 1/WK FOR 6 OR 24 HR FOR 1 OR 2 WK (STUDY DURATION: 39 WK), Dose: 0, 1, 30, Tumor Site: Type of Lesion: LIVER: ALTERED FOCI, HEPATOCELLULAR ADENOMA OR HEPATOCELLULAR CARCINOMA): active; positive | carcinogen call (Species: HAMSTER, Strain/Sex: SYRIAN/FEMALE, Route: TONGUE, Dose: 0, 0.10 ML OF A 0.5% ACETONE SOLUTION TO BORDER OF MIDDLE THIRD PORTION OF TONGUE 3/WK FOR 4 WK (STUDY DURATION: 11 WK)): inactive; negative | carcinogen call (Species: HAMSTER, Strain/Sex: SYRIAN/FEMALE, Route: TONGUE, Dose: 0, 0.10 ML OF A 0.5% ACETONE SOLUTION TO BORDER OF MIDDLE THIRD PORTION OF TONGUE 3/WK FOR 6 WK (STUDY DURATION: 11 WK), Tumor Site: Type of Lesion: TONGUE: CARCINOMA): active; positive | carcinogen call (Species: HAMSTER, Strain/Sex: SYRIAN/FEMALE, Route: TONGUE, Dose: 0, 0.10 ML OF A 0.5% ACETONE SOLUTION TO BORDER OF MIDDLE THIRD PORTION OF TONGUE 3/WK FOR 8 WK (STUDY DURATION: 11 WK), Tumor Site: Type of Lesion: TONGUE: CARCINOMA): active; positive | carcinogen call (Species: HAMSTER, Strain/Sex: SYRIAN/MALE,FEMALE, Route: DERMAL, Dose: 80 µL OF 1% SOLN IN MINERAL OIL ONCE OR 1/WK FOR 3 WK, Tumor Site: Type of Lesion: INTEGUMENTARY SYSTEM (SKIN): PAPILLOMA, SQUAMOUS CELL CARCINOMA, ANGIOMA, MELANOTIC AND ADNEXAL TUMOR): active; positive | carcinogen call (Species: HAMSTER, Strain/Sex: SYRIAN/MALE,FEMALE, Route: DERMAL, Dose: 80 µL OF 1% SOLN IN MINERAL OIL ONCE, Tumor Site: Type of Lesion: INTEGUMENTARY SYSTEM (SKIN): AMELANOTIC DERMAL MELANOCYTOMA): active; positive | carcinogen call (Species: HAMSTER, Strain/Sex: SYRIAN/MALE,FEMALE, Route: SUBCUTANEOUS, Dose: 0.005-20 MG IN 1 ML OLIVE OIL ONCE, Tumor Site: Type of Lesion: INJECTION SITE: SARCOMA): active; positive | carcinogen call (Species: MOUSE, Strain/Sex: ALBINO/MALE, Route: DERMAL, Dose: 0.05% IN OLIVE OIL OR ACETONE, 0.2 ML 2/WK, Tumor Site: Type of Lesion: INTEGUMENTARY SYSTEM (SKIN)): active; positive | carcinogen call (Species: MOUSE, Strain/Sex: B6C3F1/MALE, Route: INTRAPERITONEAL, Dose: 0, 0.00075, 0.0015, 0.003 UMOL/G IN 10 µL/G TRIOCTANOIN ONCE ON 12 D OF AGE (STUDY DURATION: 10 MO), Dose: 0, 0.00075, 0.0015, 0.003 UMOL/G IN 10 µL/G TRIOCTANOIN ONCE ON 12 D OF AGE (STUDY DURATION: 10 MO), Tumor Site: Type of Lesion: LIVER: HEPATOMA): active; positive | carcinogen call (Species: MOUSE, Strain/Sex: B6C3F1/MALE, Route: INTRAPERITONEAL, Dose: 0, 0.003, 0.01, 0.03 UMOL/G IN 10 µL/G TRIOCTANOIN ONCE ON 12 D OF AGE (STUDY DURATION: 8.5 MO), Dose: 0, 0.003, 0.01, 0.03 UMOL/G IN 10 µL/G TRIOCTANOIN ONCE ON 12 D OF AGE (STUDY DURATION: 8.5 MO), Tumor Site: Type of Lesion: LIVER: HEPATOMA): active; positive | carcinogen call (Species: MOUSE, Strain/Sex: B6C3F1/MALE, Route: INTRAPERITONEAL, Dose: 0, 0.01 UMOL/G IN 10 µL/G TRIOCTANOIN ON D 12 OF AGE (STUDY DURATION: 10 MO), Tumor Site: Type of Lesion: LIVER: HEPATOMA): active; positive | carcinogen call (Species: MOUSE, Strain/Sex: BALB/FEMALE, Route: GAVAGE, Dose: 0.5-2 MG IN ALMOND OIL 1/2 WK OR 2/WK FOR 8-10 WK, Tumor Site: Type of Lesion: OVARIES: GRANULOSA CELL TUMOR): active; positive | carcinogen call (Species: MOUSE, Strain/Sex: BALB, Route: SUBCUTANEOUS, Dose: 30 UG IN 0.02 ML OF 1% AQ GEL SUSPENDED ONCE, Tumor Site: Type of Lesion: LUNG: ADENOMA, ADENOCARCINOMA): active; positive | carcinogen call (Species: MOUSE, Strain/Sex: C57BL/FEMALE, Route: DERMAL, Dose: 2.5 MG OF 0.5% SOLN IN 0.5 ML OLIVE OIL 1/2 WK FOR LIFE, Tumor Site: Type of Lesion: INTEGUMENTARY SYSTEM (SKIN)): active; positive | carcinogen call (Species: MOUSE, Strain/Sex: C57BL, Route: DERMAL, Dose: 0.5 ML OF 0.5% SOLN IN OLIVE OIL 1/2 WK FOR 6 WK, Tumor Site: Type of Lesion: OVARIES): active; positive | carcinogen call (Species: MOUSE, Strain/Sex: C57BL, Route: DERMAL, Dose: 0.5 ML OF 0.5% SOLN IN OLIVE OIL 1/2 WK FOR 6 WK, Tumor Site: Type of Lesion: OVARIES, MAMMARY GLAND): active; positive | carcinogen call (Species: MOUSE, Strain/Sex: CBA, Route: SUBCUTANEOUS, Dose: 30 UG IN 15 µL OF 1% AQ GEL ONCE, Tumor Site: Type of Lesion: LUNG): active; positive | carcinogen call (Species: MOUSE, Strain/Sex: CD-1/FEMALE, Route: SUBCUTANEOUS, Dose: 20 MG/KG IN 1% GEL SOLN WITHIN 24 HR OF BIRTH, Tumor Site: Type of Lesion: LUNG: ADENOMA, ADENOCARCINOMA): active; positive | carcinogen call (Species: MOUSE, Strain/Sex: CD-1/MALE, Route: SUBCUTANEOUS, Dose: 20 MG/KG IN 1% GEL SOLN WITHIN 24 HR OF BIRTH, Tumor Site: Type of Lesion: LUNG: ADENOMA, ADENOCARCINOMA, LIVER: ADENOMA): active; positive | carcinogen call (Species: MOUSE, Strain/Sex: ICR, Route: SUBCUTANEOUS, Dose: 0.001, 0.01, 0.1 MG IN 0.05 ML TRICAPRYLIN, Dose: 0.001, 0.01, 0.1 MG IN 0.05 ML TRICAPRYLIN, Tumor Site: Type of Lesion: INJECTION SITE: FIBROSARCOMA, SQUAMOUS CELL CARCINOMA, SARCOMA): active; positive | carcinogen call (Species: MOUSE, Strain/Sex: MALE,FEMALE, Route: DERMAL, Dose: 0.1 ML OF 0.1% SOLN IN ACETONE 1/WK FOR 9 WK, Tumor Site: Type of Lesion: INTEGUMENTARY SYSTEM (SKIN): PAPILLOMA, MALIGNANT PAPILLOMA): active; positive | carcinogen call (Species: MOUSE, Strain/Sex: SENCAR/FEMALE, Route: GAVAGE, Dose: 0, 20, 60, 200 UG IN 0.1 ML CORN OIL 1/D 5 D/WK FOR 6 WK (STUDY DURATION: 53 WK), Dose: 0, 20, 60, 200 UG IN 0.1 ML CORN OIL 1/D 5 D/WK FOR 6 WK (STUDY DURATION: 53 WK), Tumor Site: Type of Lesion: LYMPHATIC SYSTEM: LYMPHOMA, MAMMARY GLAND: CARCINOMA): active; positive | carcinogen call (Species: MOUSE, Strain/Sex: SWISS/FEMALE, Route: DERMAL, Dose: 0, 1, 4, 8 NMOL IN 100 µL ACETONE 2/WK FOR 40 WK (STUDY DURATION: 48 WK), Dose: 0, 1, 4, 8 NMOL IN 100 µL ACETONE 2/WK FOR 40 WK (STUDY DURATION: 48 WK), Tumor Site: Type of Lesion: SKIN: TUMORS): active; positive | carcinogen call (Species: MOUSE, Strain/Sex: SWISS/FEMALE, Route: DERMAL, Dose: 20-500 UG IN ACETONE ONCE, Tumor Site: Type of Lesion: INTEGUMENTARY SYSTEM (SKIN): SQUAMOUS CELL CARCINOMA, SARCOMA, EPITHELIOMA): active; positive | carcinogen call (Species: MOUSE, Strain/Sex: SWISS/FEMALE, Route: DERMAL, Dose: 100, 200 UG IN 50 µL ACETONE ONCE, Tumor Site: Type of Lesion: INTEGUMENTARY SYSTEM (SKIN): PAPILLOMA, CARCINOMA, SARCOMA): active; positive | carcinogen call (Species: MOUSE, Strain/Sex: SWISS/MALE,FEMALE, Route: SUBCUTANEOUS, Dose: 0.9 MG SUSPENDED IN 0.45 ML 1% AQ GEL ONCE, Tumor Site: Type of Lesion: INJECTION SITE: FIBROSARCOMA, SQUAMOUS CELL CARCINOMA): active; positive
